Results as given in patent US6469049B1, “Method of treating, preventing or inhibiting central nervous system injuries and diseases” (The United States of America as represented by the …, priority 2000, dated 2002).
Entries after “also recorded” stand apart in the source; their conditions may differ.

Experiments:
[1] = system: primary cultures of neurons derived from the forebrains of E-15 rat fetuses; assay: Hemoglobin-induced toxicity in cultured neurons, MTT viability assay; assay type: cell-based
Experimental: See Koenig et al., (1999) Neurosci. Abs., 25, which is herein incorporated by reference. […] […] Neuronal viability was assessed by using the calorimetric MT assay of succinate dehydrogenase activity. MTT is a calorimetric dye, 3-(4,5-dimethylthiazol-2-yl)-2,5-diphenyltetrazolium bromide, and is available from Sigma. Neuroprotection increased with increasing concentrations of DHLA.
Primary cultures may be established following the procedures outlined by Koenig, M. L., et al., (1996) Brain Res. 730:143-149, which is herein incorporated by reference. The forebrains of fetal rat pups (embryonic day 15) are isolated and the cells are dispersed by repeated trituration in neuronal culture medium (NCM). NCM comprises a 1:1 ratio of Ham's F-12 (Biofluids, Rockville, Md.) to Basal Medium Eagle (Sigma, St. Louis, Mo.), supplemented with 0.6 g/L of dextrose, 0.35% glutamine and 1% Pen-Strep (Biofluids. Rockville, Md.). Following centrifugation at 900×g for 5 minutes, the cells are plated onto poly-L-lysine-coated 48 well plates at a density of 10^6 cells/ml. […]
Oxidative injury is assessed by using an MTT assay (Sigma, St. Louis, Mo.). […] About 200 μl aliquots are collected and the absorbance of these aliquots are measured on an ELISA plate reader at about 540 nm. Control (untreated) wells are included in each experiment, and viability is calculated as the percentage of mean control values for each plate.

[2] = system: rats; assay: Experimental spinal cord injury (dynorphin A injection) in rats, motor scores; assay type: in vivo; conditions: rat, about 5 micromoles DHLA intrathecally, 2 hour pretreatment and treatment after injury
Experimental: Here, about 5 micromoles of DHLA was administered intrathecally as a 2 hour pretreatment. Flaccid paralysis was acutely evident about 10 minutes after injection with dynorphin A and where there was no pretreatment with DHLA or co-treatment with DHLA. […] See Long et al., (1999) Neurosci. Abs. 25, which is herein incorporated reference.

[3] = system: cultured neurons; assay: H2O2-induced oxidative insult in cultured neurons, MTT assay of neuroprotection; assay type: cell-based, rat; conditions: for % Neuroprotection: 4 h incubation, then 50 μM H2O2 30 min, MTT after 24 h, mean ± SEM; for effect on the neuroprotective efficacy of DHL: H2O2 insult
Source text: Primary cultures may be established following the procedures outlined by Koenig, M. L., et al., (1996) Brain Res. 730:143-149, which is herein incorporated by reference. The forebrains of fetal rat pups (embryonic day 15) are isolated and the cells are dispersed by repeated trituration in neuronal culture medium (NCM). NCM comprises a 1:1 ratio of Ham's F-12 (Biofluids, Rockville, Md.) to Basal Medium Eagle (Sigma, St. Louis, Mo.), supplemented with 0.6 g/L of dextrose, 0.35% glutamine and 1% Pen-Strep (Biofluids. Rockville, Md.). Following centrifugation at 900×g for 5 minutes, the cells are plated onto poly-L-lysine-coated 48 well plates at a density of 10^6 cells/ml. To suppress glial growth. the cultures are treated with cytosine arabinoside (10^−5 M) for 4 days. All cultures are maintained in an incubator comprising 5% CO2 at 37° C. for about 6 days to about 15 days prior to use.
Oxidative injury is assessed by using an MTT assay (Sigma, St. Louis, Mo.). About 24 h after exposure to either hemoglobin or an oxidative insult, MTT is added to each test well such that the final concentration of the dye is about 0.15 mg/ml. Plates are returned to the incubator for about 1 hr at which time unincorporated MTU is removed and the plates are allowed to air dry. The purple formazan product indicative of viable cells is then dissolved by adding about 250 μl of acidified isopropanol comprising about 95% isopropanol and about 5% 2N HCl. About 200 μl aliquots are collected and the absorbance of these aliquots are measured on an ELISA plate reader at about 540 nm. Control (untreated) wells are included in each experiment, and viability is calculated as the percentage of mean control values for each plate.
(§1) Cultured neurons were incubated with four DHL concentrations, 3.0, 10.0, 30.0, and 100.0 micromolar of DHL, with or without 10 mM SPBN for four hours. After incubation. an oxidative insult was applied by adding 50 micromolar of H2O2 for 30 minutes after which the medium was removed and replaced with Minimum Essential Medium (MEM) (Sigma. St. Louis, Mo.). After 24 hours, the colormetric MTT assay as described above was conduced to determine amount of neuroprotection.
as §1, with “30.0.” for “30.0,”, “PBN” for “SPBN”, “incubation,” for “incubation.”, “[…]” for “removed and replaced”, “(Sigma,” for “(Sigma.”

[4] = system: cultured mouse hippocampal HT4 cells; conditions: cited from earlier work

For `O=C(O)CCCC[C@@H](S)CCS` (racemic) [DHL, dihydrolipoic acid], the “neuroprotection against hemoglobin-induced toxicity (neuronal viability, MTT)” value ([1]; DHLA co-applied with hemoglobin (no pre-incubation)) was “no evidence of neuroprotection”, the “neuroprotection against hemoglobin-induced toxicity (neuronal viability, MTT)” value ([1]; pre-incubation about 4 hours, about 0.3 to about 10 micromolar DHLA, then about 10 micromoles hemoglobin for about 24 hours) was “protective in a concentration-related manner” and the “protection against experimental spinal cord injury (motor scores)” value [2] was “protective; also recorded: improve motor scores”. The “% Neuroprotection” value ([3]; DHL 3 μM, SPBN 0 mM) was 1.31 ± 5.23%, the “% Neuroprotection” value ([3]; DHL 10 μM, SPBN 0 mM) was −3.68 ± 5.14% and the “% Neuroprotection” value ([3]; DHL 30 μM, SPBN 0 mM) was 7.04 ± 7.38%. For the same molecule, the “% Neuroprotection” value ([3]; DHL 100 μM, SPBN 0 mM) was 28.48 ± 5.83%, the “% Neuroprotection” value ([3]; Table 2 experiment: DHL 3 μM, PBN 0 mM) was −1.3 ± 7.2% and the “% Neuroprotection” value ([3]; Table 2 experiment: DHL 10 μM, PBN 0 mM) was 22.2 ± 13.6%. For the same molecule, the “% Neuroprotection” value ([3]; Table 2 experiment: DHL 30 μM, PBN 0 mM) was 22.1 ± 9.7% and the “% Neuroprotection” value ([3]; Table 2 experiment: DHL 100 μM, PBN 0 mM) was 36.9 ± 9.6%.

For `CN(C)CCNC(=O)CCCCC1CCSS1.Cl` (centres unmarked) [LA-plus, 2-(N,N-dimethylamine) ethylamido lipoate-HCL], the “in vitro protection against glutamate-induced loss of GSH, formation of peroxide and neurotoxicity, compared with ALA” value [4] is listed as “better”.

For `CC(C)(C)[N+]([O-])=Cc1ccccc1` [PBN, alpha-Phenyl-N-tert-butylnitrone, reference compound], the “effect on the neuroprotective efficacy of DHL” value ([3]; 10 mM PBN co-incubated with 3-100 μM DHL) was “significantly increased”.

In the case of `CC(C)(C)[N+]([O-])=Cc1ccccc1S(=O)(=O)O` [SPBN, N-tert-Butyl-α-(2-sulfophenyl)nitrone, reference compound], the “effect on the neuroprotective efficacy of DHL” value ([3]; 10 mM SPBN co-incubated with 3-100 μM DHL) is reported as “significantly increased”.
